This note sets out measurements from paper PMC7927808 (Antimicrobial Agents and Chemotherapy, 2020).

One test concerns S. aureus N315 pRB474. In words: MIC determination, broth microdilution in BM. The test is classed as cell-based, Staphylococcus aureus. The settings on record: Table S2, mean MIC in BM-medium; empty vector strain; 37°C, 24 h, 75% growth reduction; at least three independent experiments.
For test [1], the system named is S. aureus N315 pRB474-lugIEFGH. Briefly: MIC determination, broth microdilution in BM. The test is classed as cell-based, Staphylococcus aureus. The following applies: for Effect of constitutive LugIEFGH expression on S. aureus susceptibility (in words): S. aureus pRB474-lugIEFGH compared with S. aureus pRB474 (Fig. 4); for MIC S. aureus pRB474-lugIEFGH: Table S2, mean MIC in BM-medium, 37°C, 24 h, 75% growth reduction, at least three independent experiments; for Ratio of MICs, S. aureus pRB474-lugIEFGH versus S. aureus pRB474: Table S2 / Fig. 4b, BM-medium.
Description: Further strains used for MIC determination were S. aureus N315 with plasmids pRB474, pRB474-lugI, pRB474-lugEF, pRB474-lugIEF, pRB474-lugGH, pRB474-lugIGH, pRB474-lugEFGH, and pRB474-lugIEFGH.
If necessary, antibiotic was used at a concentration of 10 μg ml^−1 for chloramphenicol.
Strains used for MIC determinations were grown overnight in BM, with chloramphenicol for plasmid-containing strains, under continuous shaking at 37°C. Each strain was adjusted to OD600 of 0.0625 in BM. The antimicrobial molecule stock solutions were serially diluted in BM in 96-well microtiter plates. Each well with 100 μl medium, and chloramphenicol, if required, was inoculated with 2 μl of the OD600 of 0.0625 bacterial stock solution. The plates were incubated at 37°C for 24 h under continuous shaking (160 rpm). The OD600 of each well was measured with a microplate reader, and the concentration leading to a 75% growth reduction was calculated and defined as the MIC value.

2-Ala-lugdunin: the MIC S. aureus pRB474 with S. aureus N315 pRB474 is 40.2 µg/mL. In addition, in test [1], the “Effect of constitutive LugIEFGH expression on S. aureus susceptibility (in words)” value (shortened to “Effect”) was “no resistance against the 2-Ala congener was conferred”; the MIC S. aureus pRB474-lugIEFGH was 39.9 µg/mL; the “Ratio of MICs, S. aureus pRB474-lugIEFGH versus S. aureus pRB474” value (from here on “Ratio of MICs”) was 0.99.

Compound 6-Trp-lugdunin yielded an MIC S. aureus pRB474 with S. aureus N315 pRB474 of 16.4 µg/mL. In test [1], the “Effect” value is listed as “Similar, though even less pronounced”; the MIC S. aureus pRB474-lugIEFGH is 31.1 µg/mL; the “Ratio of MICs” value was 1.89.

For `N#CC(C#N)=NNc1cccc(Cl)c1` [CCCP, carbonyl cyanide m-chlorophenylhydrazone], in the test on S. aureus N315 pRB474, the MIC S. aureus pRB474 was 0.63 µg/mL. Also, in test [1], the “Effect” value is on record as “did not affect the susceptibility”; the MIC S. aureus pRB474-lugIEFGH came out at 0.64 µg/mL; the “Ratio of MICs” value is on record as 1.02.

As for `CO[C@@H]1C[C@@H](C[C@H]2CC[C@H](C)[C@H]([C@@H](C)C(=O)O)O2)O[C@]2(O[C@](C)([C@H]3CC[C@@](C)([C@@H]4O[C@@H]([C@H]5O[C@@](O)(CO)[C@H](C)C[C@@H]5C)C[C@@H]4C)O3)C[C@H]2C)[C@@H]1C` [nigericin], the MIC S. aureus pRB474 with S. aureus N315 pRB474 was 0.25 µg/mL. In addition, in test [1], the “Effect” value is listed as “did not affect the susceptibility”; the MIC S. aureus pRB474-lugIEFGH was determined as 0.25 µg/mL; the “Ratio of MICs” value amounted to 1.00.

Compound daptomycin registered an MIC S. aureus pRB474 against S. aureus N315 pRB474 of 2.17 µg/mL. In test [1], the “Effect” value is given as “did not affect the susceptibility”; the MIC S. aureus pRB474-lugIEFGH was 2.17 µg/mL; the “Ratio of MICs” value came to 1.

Compound enantio-lugdunin came in with an MIC S. aureus pRB474 in the test on S. aureus N315 pRB474 of 31.3 µg/mL. In test [1], the “Effect” value is given as “some degree of resistance”; the MIC S. aureus pRB474-lugIEFGH amounted to 69.8 µg/mL; the “Ratio of MICs” value worked out at 2.23.

gramicidin S registered an MIC S. aureus pRB474 in the test with S. aureus N315 pRB474 of 2.75 µg/mL. Moreover, in test [1], the “Effect” value is “did not affect the susceptibility”; the MIC S. aureus pRB474-lugIEFGH worked out at 2.74 µg/mL; the “Ratio of MICs” value is reported as 1.00.
